Values quoted from earlier work, collected in article PMC3019532 (Current radiopharmaceuticals, 2010).

Columns and labels:
[1] = system: CA20948 rat pancreatic tumor cells; details: 1 h of incubation with 1 × 10^5 CA20948 cells; cited from earlier work
[2] = rat, in vivo; cited from earlier work

For “[^177Lu-DOTA^0,Tyr^3]octreotate [[^177Lu]DOTA-TATE]”, the dose internalized [1] is listed as “about 0.03%” and the “metabolism, form present in urine” value [2] is listed as “predominantly intact form”.
